Structures can show the parent of a compound that is named as a salt.
Assays:
[1] = test system: STAT3; experiment: STAT3-dependent luciferase reporter gene test; format: cell-based; conditions: Homo sapiens; SKA cells (A549 with STAT3-luciferase reporter gene), 24 h; read-out: IC50 of inhibitory effect on STAT3 (luciferase reporter)
Method: HeLa and SKA cells (A549 cells constructed with the STAT3-luciferase reporter gene) were cultivated in a DMEM medium, and DU145, A549, DLD1, H460, and MC38 were cultivated in an RPMI 1640 medium. For routine cultivation, 10% fetal bovine serum (FBS), 100 IU/ml penicillin, and […] streptomycin were added to a medium. All cells were cultivated at 37° C. and 5% CO2.
SKA cells were inoculated into a white 96-well plate at a density of 1×10^4/well, and cultivated overnight at 37° C. and 5% CO2. A drug to be tested was added at a concentration to be tested to act on the cells for 24 h. The luciferase activity was determined on a SpectraMax®L microplate reader using a luciferase kit (purchased from Promega®).

[2] = Body weight and toxicity observation in tumor-bearing mice; format: in vivo
Method: (§1) Nude mice were subcutaneously injected with an A549 cell suspension (female mice) or a DU145 matrigel cell suspension (male mice). After palpable solid tumors were formed, constructed model mice were randomly divided into groups, each with 7 to 10 mice. Administration treatment was conducted according to the experimental grouping. Throughout the experiment, a body weight was measured regularly. A tumor volume was calculated as follows: tumor volume=0.5×length×width×width.

[3] = test system: STAT3 Tyr705; experiment: Western blotting of constitutive STAT3 activation in DU145 cells; format: cell-based, human; conditions: constitutively activated STAT3, 2 h
Method: (§2) The cells were harvested and lysed with an RIPA buffer, a resulting lysate was subjected to sodium dodecyl sulfate-polyacrylamide gel electrophoresis (SDS-PAGE), and a resulting protein was transferred to a nitrocellulose (NC) membrane (purchased from GE Healthcare®). A primary antibody was added to bind the protein to be tested on the membrane, then a horseradish peroxidase (HRP)-conjugated secondary antibody (purchased from Absin) was added for incubation, and finally a formed immunocomplex was detected with an Immobilon™ Western chemiluminescent HRP substrate (Millipore®) and photographed with a Tanon® 5200 imaging system.
(§3) Different concentrations of Tegaserod were added to normally-cultured cells to act on the cells for 2 h, a cell protein lysate was collected for western blotting assay, and an activation status of STAT3 was observed through a phosphorylation status at an STAT3 Tyr705 site.

[4] = test system: cell proliferation marker Ki67; experiment: Immunohistochemistry of Ki67 in DU145 transplanted tumors; format: in vivo, nude mice; conditions: oral 1.25 mg/kg once every two days
Method: (§4) Paraffin sections were deparaffinized with xylene, washed with ethanol of various grades, subjected to antigen retrieval, blocked with a blocking solution in a 37° C. incubator, then treated with a primary antibody and a secondary antibody, stained with a DAB staining solution, treated with hematoxylin, a differentiation solution, an ammonia solution, ethanol of various grades, and xylene, and sealed with a neutral resin.

[5] = test system: immune cells in MC38 transplanted tumors; experiment: FCM analysis of immune cells in MC38 tumors; format: in vivo, mice
Method: (§5) At the end of the experiment, the mice were sacrificed by C02, a proper amount of tumor tissue was collected and placed in a dissociation tube with a mouse tumor dissociation reagent (MC38 transplanted tumor) or human tumor dissociation reagent (DU145 transplanted tumor), and a tissue dissociator (Miltenyi) was used for dissociation. Separated single cells were subjected to RBC lysis and dead cell staining, obtained cells were incubated with a blocking solution at 4° C., a corresponding antibody was added, and analysis was conducted on a FACSAriaIII cell sorter.
(§6) Some parts in nude mice had acquired immune cell deficiency and an imperfect immune system, and thus the anti-tumor effect and immunomodulatory effect of Tegaserod were further tested in immune-sound mice.

[6] = test system: NSCLC A549 transplanted tumors; experiment: A549 transplanted tumor nude mouse model; format: in vivo, nude mice
Method: (§7) Female NRMI nu/nu athymic nude mice (SPF grade, 6 weeks old, with a weight of 17 g to 20 g) were purchased from GemPharmatech®, and raised in a constant-temperature and constant-humidity environment according to standard requirements, where a 12 h light-dark cycle was adopted. The animal experiment was approved by the Laboratory Animal Committee of Ocean University of China and complied with the “Guide for Care and Use of Laboratory Animals” published by the National Institutes of Health (NIH Publication No. 85-23, revised in 1996).
as §1

[7] = test system: immune cells in DU145 transplanted tumors; experiment: FCM analysis of immune cells in DU145 transplanted tumors; format: in vivo; conditions: DU145 transplanted tumors in nude mice
Method: as §5
Furthermore, the composition and proportion of immune cells in DU145 transplanted tumors in nude mice were tested through FCM.

[8] = test system: lung cancer H460 cells; experiment: Cell viability assay, H460; format: cell-based; conditions: Homo sapiens, NCI-H460, 72 h, read-out: growth inhibition IC50
Method: (§8) Cells were inoculated into a 96-well plate at a density of 3,000 cells/well. After the cells were cultivated for 18 h, different concentrations of a drug to be tested were added to act on the cells. 72 h after the drug to be tested was added, 10 μl of resazurin (1 mg/ml) was added to each well, the plate was further incubated for 3 h, and then a fluorescence value at 595 nm (excitation wavelength at 544 nm) was determined on a SpectraMax®i3 multifunctional microplate reader (purchased from Molecular Device®)
(§9) After cells were treated with Tegaserod for 72 h, the cell viability was determined to reflect the inhibitory effect of the drug on cell growth.

[9] = test system: prostate cancer DU145 cells; experiment: Cell viability assay, DU145; format: cell-based; conditions: Homo sapiens, DU-145, 72 h, read-out: growth inhibition IC50
Method: as §8, §9

[10] = biological target: T1, TYK2 Tyr1054/1055 (Homo sapiens, UniProt P29597); experiment: Western blotting of TYK2 phosphorylation in DU145 cells; format: cell-based; conditions: high concentration 15 μM, 2 h
T1 construct: endogenous in cells; host or cells: DU145
Method: as §2
(§10) STAT3 is usually JAK-kinase-phosphorylated and activated by the autophosphorylated JAK kinase upstream thereof.

[11] = test system: lung cancer A549 cells; experiment: Cell viability assay, A549; format: cell-based; conditions: Homo sapiens, 72 h, read-out: growth inhibition IC50
Method: as §8, §9

[12] = test system: DLD1 colon cancer cells; experiment: Cell viability assay, DLD1; format: cell-based; conditions: Homo sapiens, DLD-1, 72 h, read-out: growth inhibition IC50
Method: as §8, §9

[13] = biological target: T2, JAK2 Tyr1007/1008 (Homo sapiens, UniProt O60674); experiment: Western blotting of JAK2 phosphorylation in DU145 cells; format: cell-based; conditions: 7.5 μM, 2 h
T2 construct: endogenous in cells; host or cells: DU145
Method: as §2, §10

[14] = test system: STAT3 Tyr705; experiment: Western blotting of constitutive STAT3 activation in A549 cells; format: cell-based; conditions: constitutively activated STAT3, 2 h
Method: as §2, §3

[15] = test system: STAT3 (Y705); experiment: Western blotting of IL-6-induced STAT3 activation in HeLa cells; format: cell-based; conditions: 2 h drug, then 5 ng/ml IL-6 for 10 min
Method: as §2
IL-6 was the main cytokine to activate STAT3 signaling. Hela cells were first treated with different concentrations of Tegaserod for 2 h, then stimulated with 5 ng/ml IL-6 for 10 min before harvested. Total protein was extracted, and the phosphorylation of STAT3 (Y705) was detected through western blotting.

[16] = test system: prostate cancer DU145 transplanted tumors; experiment: DU145 transplanted tumor nude mouse model; format: in vivo, nude mice
Method: as §7, §1

[17] = biological target: T3, JAK1 Tyr1022/1023 (Homo sapiens, UniProt P23458); experiment: Western blotting of JAK1 phosphorylation in DU145 cells; format: cell-based
T3 construct: endogenous in cells; host or cells: DU145
Method: as §2, §10

[18] = test system: CRC MC38 transplanted tumors; experiment: CRC MC38 syngeneic tumor model; format: in vivo; conditions: immune-sound mice
Text: as §6

[19] = test system: phosphorylated STAT3; experiment: Immunohistochemistry of phosphorylated STAT3 in DU145 transplanted tumors; format: in vivo, nude mice; conditions: oral administration
Method: as §4
In addition, the human prostate cancer cell line DU145 with constitutive STAT3 activation was selected, and the effect of Tegaserod on the growth of transplanted tumors of the human prostate cancer cell line in nude mice was also tested.

[20] = test system: immune cells in peripheral blood; experiment: Blood cell analysis of peripheral blood; format: in vivo; conditions: tumor-bearing mice, after administration
Method: After the tumor-bearing mice were sacrificed by CO2, blood was collected from the heart and placed into an EDTA anticoagulation tube, and the blood cell component test was conducted using an IDEXX ProCyte Dx automatic blood cell analyzer.
In order to verify this hypothesis, the composition change of immune cells in peripheral blood after the administration of Tegaserod was first detected.

[21] = test system: mouse stromal cells of DU145 transplanted tumors; experiment: Transcriptome sequencing of DU145 transplanted tumors; format: in vivo, nude mice; conditions: mouse-derived cells in DU145 transplanted tumors, mRNA sequencing
Method: An appropriate amount of tumor tissue was collected and quick-frozen with liquid nitrogen, and eukaryotic mRNA sequencing was conducted by Majorbio. Based on the Illumina® Novaseq 6000™ sequencing platform, all mRNAs transcribed from specific eukaryotic tissues or cells in a specified period were sequenced. In the sequencing experiment, the Illumina Truseq™ RNA sample prep kit method was used to build a library. Raw data were used for quality control, sequence alignment, transcript assembly, function annotation, and expression analysis.
In order to further explore the immunomodulatory effect of Tegaserod in an anti-tumor process, the transcriptome sequencing technology was used to conduct mRNA sequencing for DU145 transplanted tumors in nude mice, and sequencing results were aligned to the mouse reference genome to obtain the overall mRNA expression of mouse-derived cells in DU145 transplanted tumors in nude mice.

T3 sequence (P23458 whole entry): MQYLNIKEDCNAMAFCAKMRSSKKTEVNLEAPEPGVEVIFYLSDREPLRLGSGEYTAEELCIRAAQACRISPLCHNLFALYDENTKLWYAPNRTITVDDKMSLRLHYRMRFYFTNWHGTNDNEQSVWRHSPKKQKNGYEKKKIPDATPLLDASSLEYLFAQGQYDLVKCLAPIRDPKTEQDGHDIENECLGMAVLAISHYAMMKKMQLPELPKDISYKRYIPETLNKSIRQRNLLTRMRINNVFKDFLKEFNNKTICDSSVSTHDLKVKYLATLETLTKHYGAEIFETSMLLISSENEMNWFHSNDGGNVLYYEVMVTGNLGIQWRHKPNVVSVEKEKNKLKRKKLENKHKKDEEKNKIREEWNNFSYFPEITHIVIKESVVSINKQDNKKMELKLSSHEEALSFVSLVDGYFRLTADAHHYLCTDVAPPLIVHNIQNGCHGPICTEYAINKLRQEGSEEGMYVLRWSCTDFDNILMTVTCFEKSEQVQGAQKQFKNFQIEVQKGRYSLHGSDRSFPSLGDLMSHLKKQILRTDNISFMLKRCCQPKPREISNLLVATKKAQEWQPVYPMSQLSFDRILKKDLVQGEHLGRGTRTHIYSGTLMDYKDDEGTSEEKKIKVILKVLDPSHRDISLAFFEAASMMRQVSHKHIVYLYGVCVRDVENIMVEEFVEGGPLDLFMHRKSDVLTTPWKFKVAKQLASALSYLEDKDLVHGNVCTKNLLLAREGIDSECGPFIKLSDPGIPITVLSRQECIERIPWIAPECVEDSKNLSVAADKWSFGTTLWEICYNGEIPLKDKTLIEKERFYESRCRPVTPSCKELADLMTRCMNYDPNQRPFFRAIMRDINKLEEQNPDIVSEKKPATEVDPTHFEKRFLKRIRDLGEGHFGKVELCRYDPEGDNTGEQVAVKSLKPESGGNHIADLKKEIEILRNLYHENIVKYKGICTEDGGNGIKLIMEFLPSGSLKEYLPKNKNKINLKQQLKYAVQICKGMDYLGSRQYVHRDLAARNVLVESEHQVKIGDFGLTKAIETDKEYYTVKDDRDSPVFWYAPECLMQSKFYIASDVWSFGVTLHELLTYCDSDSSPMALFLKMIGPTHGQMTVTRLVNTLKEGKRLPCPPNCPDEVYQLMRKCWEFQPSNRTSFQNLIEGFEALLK
T1 sequence (P29597 whole entry): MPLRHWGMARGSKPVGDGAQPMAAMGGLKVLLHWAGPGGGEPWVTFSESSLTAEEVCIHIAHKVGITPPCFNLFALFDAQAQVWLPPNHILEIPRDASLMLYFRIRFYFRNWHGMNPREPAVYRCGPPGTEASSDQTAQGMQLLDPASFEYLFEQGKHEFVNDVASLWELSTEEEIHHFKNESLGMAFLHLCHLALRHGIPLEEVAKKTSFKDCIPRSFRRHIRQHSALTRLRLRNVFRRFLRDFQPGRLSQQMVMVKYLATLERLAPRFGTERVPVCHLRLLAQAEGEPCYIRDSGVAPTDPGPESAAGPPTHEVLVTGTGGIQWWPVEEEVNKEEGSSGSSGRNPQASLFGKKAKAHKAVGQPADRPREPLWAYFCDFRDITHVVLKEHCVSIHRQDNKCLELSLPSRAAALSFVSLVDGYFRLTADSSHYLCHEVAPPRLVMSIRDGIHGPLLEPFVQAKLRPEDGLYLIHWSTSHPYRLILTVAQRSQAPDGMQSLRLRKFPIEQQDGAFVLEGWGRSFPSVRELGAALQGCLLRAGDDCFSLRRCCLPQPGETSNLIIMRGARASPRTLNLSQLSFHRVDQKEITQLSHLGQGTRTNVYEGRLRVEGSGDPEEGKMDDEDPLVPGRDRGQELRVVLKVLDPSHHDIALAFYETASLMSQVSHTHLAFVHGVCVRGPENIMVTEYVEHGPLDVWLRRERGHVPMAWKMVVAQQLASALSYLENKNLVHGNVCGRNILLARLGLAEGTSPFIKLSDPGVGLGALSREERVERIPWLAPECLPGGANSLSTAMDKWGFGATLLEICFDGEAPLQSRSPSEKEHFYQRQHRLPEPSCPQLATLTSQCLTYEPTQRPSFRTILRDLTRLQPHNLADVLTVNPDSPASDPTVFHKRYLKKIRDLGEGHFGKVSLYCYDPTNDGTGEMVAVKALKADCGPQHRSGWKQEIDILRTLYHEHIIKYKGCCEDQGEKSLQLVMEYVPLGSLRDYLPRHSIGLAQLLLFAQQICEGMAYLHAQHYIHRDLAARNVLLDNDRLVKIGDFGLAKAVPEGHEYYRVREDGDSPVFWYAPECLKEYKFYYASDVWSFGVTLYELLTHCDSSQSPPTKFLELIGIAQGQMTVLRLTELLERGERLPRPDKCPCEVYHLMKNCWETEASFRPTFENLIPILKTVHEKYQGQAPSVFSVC
T2 sequence (O60674 whole entry): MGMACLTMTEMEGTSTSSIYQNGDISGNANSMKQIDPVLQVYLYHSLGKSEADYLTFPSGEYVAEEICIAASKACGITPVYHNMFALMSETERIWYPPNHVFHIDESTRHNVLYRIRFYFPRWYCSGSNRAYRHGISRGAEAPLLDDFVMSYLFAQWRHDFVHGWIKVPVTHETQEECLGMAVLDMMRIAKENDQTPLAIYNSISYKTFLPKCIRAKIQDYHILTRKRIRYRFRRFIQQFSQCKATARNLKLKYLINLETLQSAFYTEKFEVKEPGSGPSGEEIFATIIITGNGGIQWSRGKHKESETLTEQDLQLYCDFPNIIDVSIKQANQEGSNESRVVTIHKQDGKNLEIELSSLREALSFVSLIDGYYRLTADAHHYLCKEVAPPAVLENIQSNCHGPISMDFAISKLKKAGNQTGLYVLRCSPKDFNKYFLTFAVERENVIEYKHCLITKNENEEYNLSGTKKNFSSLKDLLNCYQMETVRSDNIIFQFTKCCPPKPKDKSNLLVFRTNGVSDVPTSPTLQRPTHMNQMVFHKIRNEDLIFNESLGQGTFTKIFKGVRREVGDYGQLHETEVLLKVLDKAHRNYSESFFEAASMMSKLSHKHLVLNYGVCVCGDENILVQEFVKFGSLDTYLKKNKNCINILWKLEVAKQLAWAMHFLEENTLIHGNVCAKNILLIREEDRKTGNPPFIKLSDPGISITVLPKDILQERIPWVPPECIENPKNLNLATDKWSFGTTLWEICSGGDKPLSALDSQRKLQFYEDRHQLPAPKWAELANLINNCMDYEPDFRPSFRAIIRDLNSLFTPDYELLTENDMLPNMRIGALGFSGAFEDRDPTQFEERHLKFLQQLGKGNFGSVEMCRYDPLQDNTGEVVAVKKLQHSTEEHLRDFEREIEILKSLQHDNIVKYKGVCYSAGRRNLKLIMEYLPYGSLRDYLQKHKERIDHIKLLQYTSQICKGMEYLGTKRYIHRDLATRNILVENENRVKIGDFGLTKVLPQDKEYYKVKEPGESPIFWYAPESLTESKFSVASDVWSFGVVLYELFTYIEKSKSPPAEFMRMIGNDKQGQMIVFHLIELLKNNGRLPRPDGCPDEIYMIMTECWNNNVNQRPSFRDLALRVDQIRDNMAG

For `[H]/N=C(/NCCCCC)N/N=C/c1c[nH]c2ccc(OC)cc12` [Tegaserod maleate], the IC50 [1] was 5.06 µM.
With `CCCCCNC(=N)N/N=C/c1c[nH]c2ccc(OC)cc12` [Tegaserod, 2-[(5-methoxy-1H-indol-3-yl)methylene]-N-pentylcarbazide] the “organ damage after anatomy” value ([2]; A549 nude mouse model, i.p. administration, experimental endpoint) was “no obvious organ damage was observed”, the body weight ([2]; A549 nude mouse model, i.p. administration, throughout the experiment) was “did not change significantly” and the body weight ([2]; A549 nude mouse model, oral administration) was “did not lose weight”. For the same molecule, the “drug toxicity (body weight)” value ([2]; DU145 nude mouse model, low-dosage, low-frequency oral administration) was “no obvious drug toxicity”, the drug toxicity ([2]; DU145 nude mouse model, oral administration) was “without obvious drug toxicity” and the drug toxicity ([2]; MC38 model, immune-sound mice) was “without obvious drug toxicity”. The “inhibition of STAT3 activation (Tyr705 phosphorylation)” value [3] was “could inhibit the activation of STAT3 in a dosage-dependent manner”, the “tumor proliferation ability (Ki67 immunohistochemistry)” value [4] was “decreased proliferation ability” and the “infiltration of immune cells (CD45+) inside tumors” value [5] was “promoted the infiltration of immune cells (CD45+) inside tumors”. For the same molecule, the “anti-tumor effect relative to gefitinib” value ([6]; 5 mg/kg i.p. versus 100 mg/kg gefitinib p.o., A549 nude mice) was “comparable to that of 100 mg/kg gefitinib (p.o.)”, the “growth of A549 transplanted tumors” value ([6]; 5 mg/kg i.p., nude mice, versus control group) was “could effectively inhibit the growth of A549 tumor cells” and the “dependence of tumor inhibition rate on dosage” value ([6]; A549 transplanted tumor nude mouse model) was “no dependence on a Tegaserod dosage”. The “growth of A549 transplanted tumors (tumor weight and tumor volume)” value ([6]; oral administration, nude mice) was “could inhibit the growth of A549 transplanted tumors in nude mice”, the “proportion of immune cells (CD45+; CD11b+Ly6G+, CD11b+Ly6C+, CD335+) in tumors” value [7] was “could increase the proportion of immune cells (CD45+) in tumors” and the IC50 [8] was 3.1 µM. For the same molecule, the IC50 [9] was 2.5 µM, the “inhibition of phosphorylation at TYK2 Tyr1054/1055” value [10] was “could also inhibit the phosphorylation” and the IC50 [11] was 5.7 µM. The IC50 [12] was 8.7 µM, the “inhibition of phosphorylation at JAK2 Tyr1007/1008” value [13] was “could inhibit the phosphorylation” and the “inhibition of STAT3 activation (Tyr705 phosphorylation)” value [14] was “could inhibit the activation of STAT3 in a dosage-dependent manner”. The “inhibition of IL-6-induced STAT3 activation (Y705 phosphorylation)” value [15] was “inhibited the activation of STAT3 induced by IL-6 in a dosage-dependent manner”, the “tumor inhibition ability at reduced administration frequency” value ([16]; DU145 nude mice, oral, once every two days) was “exhibited a stronger tumor inhibition ability” and the “dependence of tumor inhibition rate on dosage” value ([16]; DU145 transplanted tumor nude mouse model) was “no dependence on a Tegaserod dosage”. The “growth of DU145 transplanted tumors” value ([16]; oral administration, nude mice) was “could effectively inhibit the growth of DU145 transplanted tumors in nude mice”, the “inhibition of phosphorylation at JAK1 Tyr1022/1023” value ([17]; 7.5 μM, 2 h) was “could inhibit the phosphorylation” and the “selectivity within the JAK kinase family” value ([17]; JAK1 and JAK2 versus TYK2) was “higher affinity to JAK1 and JAK2 than to TYK2”. For the same molecule, the “growth of CRC MC38 transplanted tumors” value [18] was “could effectively inhibit the growth of CRC MC38 transplanted tumors”, the “phosphorylation level of STAT3 in tumors (immunohistochemistry)” value [19] was “could effectively inhibit the phosphorylation level of STAT3” and the “total WBC count, neutrophils, lymphocytes, and platelets in the peripheral blood” value [20] was “could stimulate the increase”. The “genes of cytokine-cytokine receptor interaction and antigen processing and presentation (KEGG analysis)” value [21] was “significantly up-regulated”.
With `COc1cc2ncnc(Nc3ccc(F)c(Cl)c3)c2cc1OCCCN1CCOCC1` [gefitinib] the “proportion of immune cells (CD45+; CD11b+Ly6G+, CD11b+Ly6C+, CD335+) in tumors” value [7] was “also exhibited a similar immunomodulatory effect” and the “total WBC count, neutrophils, lymphocytes, and platelets in the peripheral blood” value [20] was “stimulate the increase”.
